Literature values, collected in patent publication US8772346B2, “Pharmaceutical composition” (Torrent Pharmaceuticals Limited, priority 2005, dated 2014).
Like-named read-outs stand apart in the source and are kept apart here.

Conditions: HP-β-CD (10% w/v)

## CCN(CC)C(=O)/C(C#N)=C/c1cc(O)c(O)c([N+](=O)[O-])c1 [entacapone]
pH 3.0
  increase of aqueous solubility of entacapone by complexation with HP-β-CD: 12 fold
pH 5.0
  increase of aqueous solubility of entacapone by complexation with HP-β-CD: 85 fold
